Literature values in patent US20110020480A1, “USE OF BENZOXAZINOIDS-CONTAINING CEREAL GRAIN PRODUCTS FOR HEALTH-IMPROVING PURPOSES” (priority 2008, published 2011).

How the values were obtained:
[1] = daily dose

SMILES: COc1ccc2[nH]c(=O)oc2c1 [6-MBOA, 6-methoxy-benzoxazolin-2-one]
- effect on depression or mood (human males): significant positive effect
- therapeutic dose for treating depressive states of mind [1]: approx. 15 mg daily
- cumulative daily dose for obtaining appetite suppression (overweight women): 15 µg
